In assay [1] the target is Dual specificity protein kinase CLK1 (Homo sapiens) (UniProt P49759). The assay is described as follows: Residual activity of CLK1 at 1 uM by microplate scintillation counting.
Assay [2] deals with PAS domain-containing serine/threonine-protein kinase (Homo sapiens) (UniProt Q96RG2). Briefly: Residual activity of PASK at 10 uM by microplate scintillation counting.
Assay [3] has as its target T1, NUAK family SNF1-like kinase 1 (Homo sapiens) (UniProt O60285).
T1 sequence (whole entry): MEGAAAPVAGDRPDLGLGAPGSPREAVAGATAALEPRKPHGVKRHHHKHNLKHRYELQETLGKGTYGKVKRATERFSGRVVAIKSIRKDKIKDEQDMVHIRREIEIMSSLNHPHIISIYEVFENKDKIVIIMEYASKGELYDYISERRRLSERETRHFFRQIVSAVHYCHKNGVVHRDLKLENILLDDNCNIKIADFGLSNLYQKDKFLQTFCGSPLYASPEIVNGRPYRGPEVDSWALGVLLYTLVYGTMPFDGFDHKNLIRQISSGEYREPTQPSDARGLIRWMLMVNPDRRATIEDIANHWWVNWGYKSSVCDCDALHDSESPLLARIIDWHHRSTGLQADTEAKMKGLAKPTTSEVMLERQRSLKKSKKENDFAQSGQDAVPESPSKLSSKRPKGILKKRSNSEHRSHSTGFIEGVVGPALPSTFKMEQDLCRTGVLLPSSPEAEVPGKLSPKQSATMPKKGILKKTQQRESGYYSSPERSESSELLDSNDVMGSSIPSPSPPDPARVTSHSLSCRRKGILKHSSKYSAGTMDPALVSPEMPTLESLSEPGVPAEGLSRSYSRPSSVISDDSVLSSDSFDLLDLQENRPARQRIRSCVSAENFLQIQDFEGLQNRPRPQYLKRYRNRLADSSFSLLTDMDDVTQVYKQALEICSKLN
The assay is described as follows: Residual activity of ARK5 at 1 uM by microplate scintillation counting.

Assay [4] concerns the target Rho-associated protein kinase 2 (Homo sapiens) (UniProt O75116). Briefly: Residual activity of ROCK2 at 0.1 uM by microplate scintillation counting.
In assay [5] the target is Tyrosine-protein kinase Fer (Homo sapiens) (UniProt P16591). The assay is described as follows: Residual activity of FER at 10 uM by microplate scintillation counting.
Assay [6] concerns the target T2, Serine/threonine-protein kinase Nek11 (Homo sapiens) (UniProt Q8NG66).
T2 sequence (whole entry): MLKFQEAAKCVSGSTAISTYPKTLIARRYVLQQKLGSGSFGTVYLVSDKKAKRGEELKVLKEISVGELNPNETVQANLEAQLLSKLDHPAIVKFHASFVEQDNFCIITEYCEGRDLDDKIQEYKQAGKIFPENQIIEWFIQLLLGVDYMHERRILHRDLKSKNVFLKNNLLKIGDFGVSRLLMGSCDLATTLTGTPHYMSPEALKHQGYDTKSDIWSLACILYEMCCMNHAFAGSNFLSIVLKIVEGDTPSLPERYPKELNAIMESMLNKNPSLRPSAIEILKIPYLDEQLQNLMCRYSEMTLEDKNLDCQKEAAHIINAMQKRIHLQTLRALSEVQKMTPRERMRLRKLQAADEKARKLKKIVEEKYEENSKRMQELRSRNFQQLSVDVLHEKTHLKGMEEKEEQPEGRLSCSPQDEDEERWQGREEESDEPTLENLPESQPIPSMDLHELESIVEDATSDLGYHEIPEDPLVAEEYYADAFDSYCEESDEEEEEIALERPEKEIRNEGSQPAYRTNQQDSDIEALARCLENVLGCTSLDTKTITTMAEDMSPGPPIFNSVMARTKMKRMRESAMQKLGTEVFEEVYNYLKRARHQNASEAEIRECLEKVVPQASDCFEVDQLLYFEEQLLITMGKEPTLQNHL
Briefly: Residual activity of NEK11 at 10 uM by microplate scintillation counting.

Assay [7] concerns the target T3, Aurora kinase C (Homo sapiens) (UniProt Q9UQB9).
T3 sequence (whole entry): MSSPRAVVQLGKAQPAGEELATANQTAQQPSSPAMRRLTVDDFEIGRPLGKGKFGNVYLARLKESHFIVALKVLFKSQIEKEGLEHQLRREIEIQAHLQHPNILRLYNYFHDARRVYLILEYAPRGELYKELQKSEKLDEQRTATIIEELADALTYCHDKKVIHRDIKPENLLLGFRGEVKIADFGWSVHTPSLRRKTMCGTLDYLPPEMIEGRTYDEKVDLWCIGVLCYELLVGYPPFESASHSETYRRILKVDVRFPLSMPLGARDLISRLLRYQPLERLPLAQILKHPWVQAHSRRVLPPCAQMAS
Briefly: Residual activity of Aurora-C at 1 uM by microplate scintillation counting.

Assay [8] addresses Casein kinase I isoform alpha (Homo sapiens) (UniProt P48729). Briefly: Residual activity of CK1alpha1 at 1 uM by microplate scintillation counting.
For assay [9], the target named is Serine/threonine-protein kinase Nek7 (Homo sapiens) (UniProt Q8TDX7). The assay is described as follows: Residual activity of NEK7 at 1 uM by microplate scintillation counting.
In assay [10] the target is Dual specificity tyrosine-phosphorylation-regulated kinase 1A (Homo sapiens) (UniProt Q13627). Briefly: Residual activity of DYRK1A at 10 uM by microplate scintillation counting.
The target in assay [11] is Casein kinase I isoform gamma-1 (Homo sapiens) (UniProt Q9HCP0). The assay is described as follows: Residual activity of CK1gamma1 at 1 uM by microplate scintillation counting.
Assay [12] deals with T4, Serine/threonine-protein kinase Sgk2 (Homo sapiens) (UniProt Q9HBY8).
T4 sequence (whole entry): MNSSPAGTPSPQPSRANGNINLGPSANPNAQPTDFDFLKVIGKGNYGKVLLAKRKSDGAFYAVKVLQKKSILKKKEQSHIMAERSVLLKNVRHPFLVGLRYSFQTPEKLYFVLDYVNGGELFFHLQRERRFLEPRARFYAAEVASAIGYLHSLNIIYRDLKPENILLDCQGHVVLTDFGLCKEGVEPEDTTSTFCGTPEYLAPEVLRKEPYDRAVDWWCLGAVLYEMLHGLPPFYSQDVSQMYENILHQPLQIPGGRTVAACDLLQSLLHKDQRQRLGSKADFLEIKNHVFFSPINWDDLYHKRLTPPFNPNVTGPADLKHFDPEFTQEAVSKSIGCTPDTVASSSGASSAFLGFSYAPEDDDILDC
Briefly: Residual activity of SGK2 at 1 uM by microplate scintillation counting.

The target of assay [13] is Rho-associated protein kinase 2 (Homo sapiens) (UniProt O75116). Briefly: Residual activity of ROCK2 at 1 uM by microplate scintillation counting.
Assay [14] deals with Mitogen-activated protein kinase 10 (Homo sapiens) (UniProt P53779). Briefly: Residual activity of JNK3 at 0.1 uM by microplate scintillation counting.
The target in assay [15] is RAC-gamma serine/threonine-protein kinase (Homo sapiens) (UniProt Q9Y243). Briefly: Residual activity of AKT3 at 1 uM by microplate scintillation counting.
Assay [16] concerns the target Mitogen-activated protein kinase kinase kinase 14 (Homo sapiens) (UniProt Q99558). The assay is described as follows: Residual activity of NIK at 10 uM by microplate scintillation counting.

3 compounds from ChEMBL document CHEMBL1152560, “Substituted 2-arylbenzothiazoles as kinase inhibitors: hit-to-lead optimization” (Bioorg Med Chem, 2009) can be followed below.

Chain of Dual specificity protein kinase CLK1 (Homo sapiens) (P49759 whole entry, looked up, the tested form may be a part): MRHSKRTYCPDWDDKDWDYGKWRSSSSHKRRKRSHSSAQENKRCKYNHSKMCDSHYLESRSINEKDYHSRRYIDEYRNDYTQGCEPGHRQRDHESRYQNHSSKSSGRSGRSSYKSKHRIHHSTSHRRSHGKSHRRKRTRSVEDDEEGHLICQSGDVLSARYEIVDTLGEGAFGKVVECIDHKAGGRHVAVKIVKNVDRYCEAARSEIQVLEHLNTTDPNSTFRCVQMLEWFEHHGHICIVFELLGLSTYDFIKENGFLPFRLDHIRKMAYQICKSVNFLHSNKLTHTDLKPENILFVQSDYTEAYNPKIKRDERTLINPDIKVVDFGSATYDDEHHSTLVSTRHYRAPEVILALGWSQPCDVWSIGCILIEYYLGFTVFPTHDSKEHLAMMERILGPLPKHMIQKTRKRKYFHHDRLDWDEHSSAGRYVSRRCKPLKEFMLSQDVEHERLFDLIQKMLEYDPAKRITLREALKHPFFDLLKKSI
Chain of Casein kinase I isoform gamma-1 (Homo sapiens) (Q9HCP0 whole entry, looked up, canonical isoform): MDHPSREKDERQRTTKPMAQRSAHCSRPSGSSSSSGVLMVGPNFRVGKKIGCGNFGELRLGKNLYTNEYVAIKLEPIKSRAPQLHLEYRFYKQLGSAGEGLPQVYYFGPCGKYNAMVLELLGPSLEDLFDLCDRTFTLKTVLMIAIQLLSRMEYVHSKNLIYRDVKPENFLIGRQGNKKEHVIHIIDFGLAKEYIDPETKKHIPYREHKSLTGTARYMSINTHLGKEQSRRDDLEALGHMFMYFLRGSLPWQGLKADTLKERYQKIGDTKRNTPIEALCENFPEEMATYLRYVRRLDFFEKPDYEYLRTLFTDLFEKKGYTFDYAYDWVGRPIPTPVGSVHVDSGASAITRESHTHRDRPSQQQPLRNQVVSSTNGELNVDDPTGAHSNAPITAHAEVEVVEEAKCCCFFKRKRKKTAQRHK
Chain of RAC-gamma serine/threonine-protein kinase (Homo sapiens) (Q9Y243 whole entry): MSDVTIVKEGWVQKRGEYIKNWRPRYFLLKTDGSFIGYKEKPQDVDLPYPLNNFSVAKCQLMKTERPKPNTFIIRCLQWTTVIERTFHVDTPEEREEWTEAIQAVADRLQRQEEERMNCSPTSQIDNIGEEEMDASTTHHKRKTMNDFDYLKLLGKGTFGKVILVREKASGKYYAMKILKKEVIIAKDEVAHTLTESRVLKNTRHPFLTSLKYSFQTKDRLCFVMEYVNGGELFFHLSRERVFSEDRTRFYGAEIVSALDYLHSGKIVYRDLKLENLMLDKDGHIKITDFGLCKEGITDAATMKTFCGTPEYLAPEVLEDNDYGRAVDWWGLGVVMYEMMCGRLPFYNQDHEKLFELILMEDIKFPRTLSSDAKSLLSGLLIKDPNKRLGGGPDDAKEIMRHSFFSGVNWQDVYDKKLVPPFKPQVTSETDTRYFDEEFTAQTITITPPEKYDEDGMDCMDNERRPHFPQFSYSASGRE
Chain of Tyrosine-protein kinase Fer (Homo sapiens) (P16591 whole entry, looked up): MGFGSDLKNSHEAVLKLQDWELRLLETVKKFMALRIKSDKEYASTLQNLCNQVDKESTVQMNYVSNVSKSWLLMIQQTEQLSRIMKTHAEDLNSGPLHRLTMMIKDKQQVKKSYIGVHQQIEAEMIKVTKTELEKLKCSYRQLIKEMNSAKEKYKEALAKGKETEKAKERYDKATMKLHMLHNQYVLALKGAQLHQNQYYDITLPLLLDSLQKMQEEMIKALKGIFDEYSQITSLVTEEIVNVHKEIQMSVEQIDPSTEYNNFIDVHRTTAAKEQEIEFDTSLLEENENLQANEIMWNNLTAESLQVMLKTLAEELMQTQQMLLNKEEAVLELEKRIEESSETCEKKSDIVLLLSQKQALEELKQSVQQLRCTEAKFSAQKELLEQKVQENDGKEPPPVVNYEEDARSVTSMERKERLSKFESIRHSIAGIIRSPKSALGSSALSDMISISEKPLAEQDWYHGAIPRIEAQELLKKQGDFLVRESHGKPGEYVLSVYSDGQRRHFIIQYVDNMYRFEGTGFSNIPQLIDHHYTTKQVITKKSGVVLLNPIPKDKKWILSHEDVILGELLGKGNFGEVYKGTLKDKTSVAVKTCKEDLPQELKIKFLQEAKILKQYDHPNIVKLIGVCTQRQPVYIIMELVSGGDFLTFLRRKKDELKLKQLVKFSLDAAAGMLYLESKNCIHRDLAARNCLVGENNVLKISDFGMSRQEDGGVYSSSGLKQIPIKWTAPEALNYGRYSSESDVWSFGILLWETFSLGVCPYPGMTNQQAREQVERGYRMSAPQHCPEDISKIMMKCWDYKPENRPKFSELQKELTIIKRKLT
Chain of Rho-associated protein kinase 2 (Homo sapiens) (O75116 whole entry, looked up): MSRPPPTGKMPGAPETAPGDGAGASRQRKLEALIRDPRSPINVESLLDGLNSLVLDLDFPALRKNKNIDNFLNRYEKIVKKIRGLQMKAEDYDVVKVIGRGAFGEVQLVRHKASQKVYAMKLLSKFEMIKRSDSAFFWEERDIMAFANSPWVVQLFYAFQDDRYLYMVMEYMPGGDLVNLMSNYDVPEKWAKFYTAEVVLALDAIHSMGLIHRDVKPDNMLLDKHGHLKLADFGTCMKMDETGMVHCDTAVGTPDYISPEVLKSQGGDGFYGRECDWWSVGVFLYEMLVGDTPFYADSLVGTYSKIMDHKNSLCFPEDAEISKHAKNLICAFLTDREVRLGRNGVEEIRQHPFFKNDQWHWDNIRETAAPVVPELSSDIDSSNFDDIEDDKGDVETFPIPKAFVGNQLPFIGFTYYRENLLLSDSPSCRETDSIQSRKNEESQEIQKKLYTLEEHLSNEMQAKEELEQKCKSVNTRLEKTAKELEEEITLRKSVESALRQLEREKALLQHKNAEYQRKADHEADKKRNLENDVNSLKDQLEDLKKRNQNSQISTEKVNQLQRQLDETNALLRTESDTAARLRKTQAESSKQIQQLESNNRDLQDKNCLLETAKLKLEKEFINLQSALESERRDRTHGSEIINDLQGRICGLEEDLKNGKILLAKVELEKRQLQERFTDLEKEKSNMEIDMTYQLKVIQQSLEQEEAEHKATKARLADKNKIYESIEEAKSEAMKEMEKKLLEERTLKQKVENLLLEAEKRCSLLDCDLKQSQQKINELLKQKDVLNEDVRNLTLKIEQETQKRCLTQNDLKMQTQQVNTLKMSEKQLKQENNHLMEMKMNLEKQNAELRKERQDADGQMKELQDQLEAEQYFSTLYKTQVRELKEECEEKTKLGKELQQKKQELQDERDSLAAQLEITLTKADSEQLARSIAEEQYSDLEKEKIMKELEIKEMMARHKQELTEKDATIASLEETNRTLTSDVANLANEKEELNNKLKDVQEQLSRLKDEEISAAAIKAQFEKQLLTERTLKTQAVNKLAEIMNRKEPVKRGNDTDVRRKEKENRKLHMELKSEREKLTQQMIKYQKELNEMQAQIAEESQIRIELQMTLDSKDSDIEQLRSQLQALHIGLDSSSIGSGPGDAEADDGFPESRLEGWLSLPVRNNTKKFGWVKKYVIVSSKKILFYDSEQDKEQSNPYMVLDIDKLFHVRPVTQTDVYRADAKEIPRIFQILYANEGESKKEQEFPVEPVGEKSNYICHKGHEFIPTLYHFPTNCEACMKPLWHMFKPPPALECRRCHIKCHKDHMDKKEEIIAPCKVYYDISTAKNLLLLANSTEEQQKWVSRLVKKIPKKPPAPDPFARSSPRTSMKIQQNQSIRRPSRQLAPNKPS
Chain of Casein kinase I isoform alpha (Homo sapiens) (P48729 2-337 limits assumed): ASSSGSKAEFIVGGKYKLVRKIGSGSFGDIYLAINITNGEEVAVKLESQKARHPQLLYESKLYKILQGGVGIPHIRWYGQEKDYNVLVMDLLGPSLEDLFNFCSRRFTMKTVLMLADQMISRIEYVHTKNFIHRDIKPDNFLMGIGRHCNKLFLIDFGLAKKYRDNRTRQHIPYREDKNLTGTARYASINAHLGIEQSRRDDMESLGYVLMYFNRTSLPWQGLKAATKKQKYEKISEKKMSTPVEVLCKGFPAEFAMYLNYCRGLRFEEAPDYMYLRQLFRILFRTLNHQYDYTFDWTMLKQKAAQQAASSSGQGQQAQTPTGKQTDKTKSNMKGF
Chain of Serine/threonine-protein kinase Nek7 (Homo sapiens) (Q8TDX7 whole entry, looked up): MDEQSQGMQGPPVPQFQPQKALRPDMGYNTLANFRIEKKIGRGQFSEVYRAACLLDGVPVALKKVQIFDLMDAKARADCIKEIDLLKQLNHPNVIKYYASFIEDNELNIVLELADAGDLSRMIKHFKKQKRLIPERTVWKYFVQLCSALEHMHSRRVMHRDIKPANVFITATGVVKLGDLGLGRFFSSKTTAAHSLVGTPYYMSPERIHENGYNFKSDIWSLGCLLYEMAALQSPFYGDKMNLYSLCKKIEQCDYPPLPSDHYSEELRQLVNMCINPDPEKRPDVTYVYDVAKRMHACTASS
Chain of Mitogen-activated protein kinase 10 (Homo sapiens) (P53779 whole entry): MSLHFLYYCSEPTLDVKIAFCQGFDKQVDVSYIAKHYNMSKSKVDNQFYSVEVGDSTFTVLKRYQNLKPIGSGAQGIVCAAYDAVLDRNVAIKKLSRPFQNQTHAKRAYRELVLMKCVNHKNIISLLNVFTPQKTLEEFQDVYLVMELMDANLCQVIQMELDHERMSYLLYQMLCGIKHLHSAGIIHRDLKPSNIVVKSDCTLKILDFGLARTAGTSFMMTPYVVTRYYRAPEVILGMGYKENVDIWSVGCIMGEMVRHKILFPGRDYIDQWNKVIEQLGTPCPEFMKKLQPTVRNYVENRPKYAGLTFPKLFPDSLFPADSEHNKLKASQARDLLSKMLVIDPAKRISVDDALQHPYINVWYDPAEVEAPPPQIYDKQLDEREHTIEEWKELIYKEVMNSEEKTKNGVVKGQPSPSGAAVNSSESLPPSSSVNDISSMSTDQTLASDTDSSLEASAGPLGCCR

In the case of `COc1cc2c(Oc3ccc(-c4nc5ccccc5s4)cc3F)ncnc2cc1OCCCN1CCN(C)CC1`, the residual activity in assay [1] is 104%; in assay [2], 79%; in [3] it was 101%; in assay [4], 82%; in assay [5] it was 16%; in [6] it was 83%. The residual activity in [7] amounted to 10%; in assay [8], 103%; in assay [9], 103%; in assay [10], 101%; in assay [11], 110%; in assay [12], 93%. The residual activity in [13] came out at 93%; in assay [14], 87%; in [15] it was 89%; in assay [16] it was 107%.
On to `COc1cc2c(Oc3ccc(-c4nc5ccccc5s4)cc3)ncnc2cc1OCCCN1CCN(C)CC1`, for which the residual activity in assay [1] was 99%; in assay [2], 96%; in assay [3], 88%; in assay [4], 98%; in [5], 79%; in assay [6], 113%. The residual activity worked out at 11% in assay [7]; 99% in assay [8]; 95% in assay [9]; 103% in assay [10]; 112% in assay [11]; 95% in [12]. The residual activity in assay [13] was 101%; in assay [14] it was 113%; in [15], 88%; in assay [16], 94%.
For the compound `COc1cc2c(Oc3ccc(-c4nc5ccccc5s4)cc3)ncnc2cc1OCCCN1CCCC1`, the residual activity turned out to be 107% in assay [1]; 83% in assay [2]; 91% in assay [3]; 119% in [4]; 73% in [5]; 81% in [6]. The residual activity came out at 7% in assay [7]; 102% in [8]; 104% in [9]; 89% in [10]; 97% in assay [11]; 93% in [12]. For the same compound, the residual activity was determined as 93% in [13], 100% in assay [14], 98% in assay [15] and 125% in assay [16].
